Measurements as given in article PMC9653409, “Generative deep learning enables the discovery of a potent and selective RIPK1 inhibitor” (Nature Communications, 2022).
pEC50, pIC50: −log10 of the molar value.

Columns and labels:
[1] = test system: HT29 cells; assay: TSZ-induced HT29 cell necroptosis model (CCK8); format: cell-based; conditions: Homo sapiens, HT-29; TSZ-induced necroptosis; read-out: HT29 EC50
Method: Cell necroptosis protection assays were performed in 96-well cell culture plates. Cells were plated in each well and cultured at 37 °C overnight. […] The cell survival rate was determined using a CCK8 cell viability assay kit and CLARIOstar (v5.61). […] All experiments were performed at least two times, and each EC50 value was expressed as mean ± standard deviation (SD).

[2] = target: T1, RIPK1 (Homo sapiens, UniProt Q13546); assay: RIPK1 kinase assay, 33P-labeled ATP assay at Eurofins; format: biochemical; conditions: read-out: RIPK1 IC50
T1 sequence (Q13546 1-671): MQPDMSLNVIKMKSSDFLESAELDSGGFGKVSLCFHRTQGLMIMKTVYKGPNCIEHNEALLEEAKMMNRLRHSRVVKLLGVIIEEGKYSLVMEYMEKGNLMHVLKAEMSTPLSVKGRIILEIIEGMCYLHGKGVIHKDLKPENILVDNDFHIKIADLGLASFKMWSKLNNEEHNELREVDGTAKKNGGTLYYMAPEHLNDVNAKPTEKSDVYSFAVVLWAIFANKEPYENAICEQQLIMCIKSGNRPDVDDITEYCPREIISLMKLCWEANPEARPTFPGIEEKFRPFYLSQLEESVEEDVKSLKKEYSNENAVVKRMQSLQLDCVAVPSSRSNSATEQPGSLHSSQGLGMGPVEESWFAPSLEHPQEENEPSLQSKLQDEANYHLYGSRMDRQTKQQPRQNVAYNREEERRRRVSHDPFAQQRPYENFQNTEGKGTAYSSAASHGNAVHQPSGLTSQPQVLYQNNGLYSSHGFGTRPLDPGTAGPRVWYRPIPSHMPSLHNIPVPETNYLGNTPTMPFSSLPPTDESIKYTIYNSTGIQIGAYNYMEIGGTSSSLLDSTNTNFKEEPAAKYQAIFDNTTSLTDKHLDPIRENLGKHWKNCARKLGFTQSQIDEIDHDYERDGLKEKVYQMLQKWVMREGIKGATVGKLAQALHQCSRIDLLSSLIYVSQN
Method: In vitro kinase activity assays were conducted through the Kinase Profiling Services provided by Eurofins (Eurofins, France). The protocol for the RIPK1 assay is briefly described as follows (Protocols for other kinases are very similar and can be found in http://www.eurofins.com/pharmadiscovery). RIPK1 kinase was incubated with the test compound in assay buffer containing 8 mM MOPS (pH 7.0), 0.2 mM EDTA, 250 μM […], 10 mM magnesium acetate, and 10 μM [γ-33P]-ATP for 15 min at room temperature. The reaction was initiated by the addition of the Mg/ATP mixture. After incubation for 40 min at room temperature, and the reaction was stopped by the addition of 3% phosphoric acid. A 10 μL portion of the reaction mixture was then spotted onto a P30 filter mat and washed four times for 4 min in 0.425% phosphoric acid and once in methanol prior to drying and scintillation counting.

[3] = target: T1, RIPK1; conditions: cited from earlier work
[4] = Cytotoxicity at high concentration; format: cell-based; conditions: 3-10 μM

CC(NCC(=O)Nc1cccc(-c2cc(C(=O)NCc3cccc(F)c3)n(C)c2)n1)c1ccccc1F (centres unmarked) [RI-470, N-(3-fluorobenzyl)-4-(6-(2-((1-(2-fluorophenyl)ethyl)amino)acetamido)pyridin-2-yl)-1-methyl-1H-pyrrole-2-carboxamide]
pEC50 [1]: < 4.00
pIC50 [2]: < 5.00

CC(=O)Nc1cn2cc(-c3ccc(CNC(=O)c4cc(F)ccc4OCC4CCCC4)nc3)ccc2n1 [RI-985]
pEC50 [1]: < 4.52
pIC50 [2]: < 5.00

Cc1cc(Oc2ccc(F)c(C(=O)NCc3ccc(F)cc3)n2)cc(C(=O)NCc2ccc(Br)s2)c1 [RI-539]
pEC50 [1]: < 4.52
pIC50 [2]: < 5.00

CN1C(=O)NC(Cc2c[nH]c3c(Cl)cccc23)C1=O (centres unmarked) [Nec-1a]
potency against RIPK1 [3]: 317 nM

CCOc1ccccc1CNCC(=O)c1cn2ccc(-c3ccn4nc(NC(=O)C(C)C)nc4c3)cc2n1 [RI-753, N-(7-(2-((2-ethoxybenzyl)glycyl)imidazo[1,2-a]pyridin-7-yl)-[1,2,4]triazolo[1,5-a]pyridin-2-yl)isobutyramide]
pEC50 [1]: 7.19
pIC50 [2]: 6.33

CC(NC(=O)c1cn(C)c2ccc(-c3ccn4nc(NC(=O)C5CC5)cc4n3)cc12)c1ccccc1 (centres unmarked) [RI-056]
cytotoxicity [4]: some cytotoxicity at high concentration (3-10 μM)
pEC50 [1]: 7.31
pIC50 [2]: 7.19

CC(NC(=O)c1cn(C)c2ccc(-c3ccn4nc(NC(=O)C5CC5)cc4n3)cc12)c1ccc(F)cc1 (centres unmarked) [RI-1155]
cytotoxicity [4]: some cytotoxicity at high concentration (3-10 μM)
pEC50 [1]: 7.40
pIC50 [2]: 7.31

CNC(=O)c1n[nH]c2cc(-c3ccc(C(=O)NCc4ccc(OCCC5CC5)cc4)nc3)ccc12 [RI-413]
pEC50 [1]: < 4.52
pIC50 [2]: < 5.00
